Our source for the Activity values is ChEMBL document CHEMBL3120151, “Synthesis and in vivo evaluation of N-ethylamino-2-oxo-1,2-dihydro-quinoline-3-carboxamide for inhibition of intestinal tumorigenesis in APC(Min/+) mice” (Bioorg Med Chem Lett, 2014).

In data set [1] the test system is Mus musculus. The data set can be described thus: Toxicity in APCMin/+ mouse model assessed as change in body weight at 150 ppm administered with diet from week 6 to week 18 relative to control. The data set is classed as organism-based. Particulars: in vivo, po.
Another data set concerns Cancer cell lines. The data set can be described thus: Antitumor activity against colon cancer cells in APCMin/+ mouse model assessed as inhibition of colon tumor formation at 150 ppm administered with diet from week 6 to week 18 relative to control. The data set is classed as functional.
Data set [2] concerns Mus musculus. The data set can be described thus: Antitumor activity against intestinal polyp in APCMin/+ mouse model assessed as reduction in intestinal polyp formation with size >2 mm at 150 ppm administered with diet from week 6 to week 18 relative to control. The data set is classed as functional.
Data set [3] concerns Mus musculus. The data set can be described thus: Antitumor activity against intestinal polyp in APCMin/+ mouse model at 150 ppm administered with diet from week 6 to week 18 relative to control. The data set is classed as functional.

Activity calls are given as the source filed them. The calls are words filed in the database; no cut-off is given here.

Consider `NCCNC(=O)c1cc2ccccc2[nH]c1=O`, for which, in the data set with Mus musculus [1], the Activity result was “Non-toxic”. Besides, the result in the data set with Cancer cell lines and in the data set on Mus musculus [3] was inactive. Also, in the data set on Mus musculus [2], the result was Active.
